Test results: patent US10292958B2, “Lipid-containing compositions and methods of use thereof” (ASHA NUTRITION SCIENCES, INC., priority 2008, dated 2019)

Tests used:
[1] = system: inflammation, immunity, infection; settings: menopausal person; 11 g LA; ALA reduced from 1.8 g to 1.2 g
ovulation = assay: Case study on ovulation, reproductive disorders; assay type: in vivo, human; settings: person
Excerpt: In a host subject cessation of ovulation (as indicated by watery pale menstrual cycles), intense ovulation-related pains and anovulatry menstruation at extremely low omega-6 fatty acids in diet were observed; olive oil being the main fat source. It is hypothesized herein that this was due to deficiency of omega-6 derived prostaglandins, which aid ovulation.

[2] = cited from earlier work; for effect on blood cholesterol: saturated fats of chain-length 12, 14 and 16

## CC/C=C\C/C=C\C/C=C\CCCCCCCC(=O)O [ALA, Alpha-linolenic Acid]
[1]
  symptoms (spinal burning sensation, heat in the body, delayed wound healing, vaginal yeast infection): disappeared

## CC(C)Cc1ccc(C(C)C(=O)O)cc1 (stereo not shown) [Advil]
ovulation
  cessation of ovulation, ovulation-related pains, anovulatory menstruation: same phenomenon was observed

## CCCCCCCCCCCCCCCCCC(=O)O [Stearic acid]
[2]; in vivo
  lowering of cholesterol: 21%

## CCCCCCCCCCCC(=O)O [lauric acid]
[2]
  effect on blood cholesterol: elevate blood cholesterol

## CCCCCCCCCCCCCC(=O)O [myristic acid]
[2]
  effect on blood cholesterol: elevate blood cholesterol

## CCCCCCCC/C=C\CCCCCCCC(=O)O [oleic acid]
[2]; in vivo
  lowering of LDL: 15%

## CCCCCCCCCCCCCCCC(=O)O [palmitic acid]
[2]
  effect on blood cholesterol: elevate blood cholesterol
